Data set [1] relates to familial diarrhea syndrome patients. Briefly: Metformin treatment trial (I), pilot study in patients. The data set is classed as in vivo, human. On the procedure: A pilot study (I) with metformin was performed in six individuals from branch A, with a low peroral dose of 500 mg twice daily. The trial lasted 10 weeks, and the patients registered number of stools (and texture) during week 1, 5 and 10. The first week was without treatment and the patients received 500 mg x 2 during weeks 2- 5. Weeks 6 - 10 were without treatment. […] Number of stools per week was reduced by 40% in two patients with high stool frequency (35-36 per week). Three patients reported that stools were firmer during treatment.

For data set [2] the test system is unchanged. Kind of data set: Metformin treatment trial (II), pilot study with increasing metformin doses. The data set is classed as in vivo, human. The note with it: four of five individuals. How it is done:
The dose given in the first metformin treatment trial (Table 2) was modest, and another pilot study with increasing metformin doses was started, including five individuals with high stool frequencies (22-42 per week). Patients with a history of ileus or inflammatory bowel disease were not included. Stool frequency was recorded continously for eight weeks. At day 1 of each week, blood samples were drawn for control of s-glucose, hemoglobin and creatinine. Symptoms and potential side-effects were followed closely by a weekly telephone call from the gastroenterologist.
The patients were without medication in week 1, and then the dose of metformin was increased each week as shown by the horizontal bars, starting at the beginning of week 2 and stopping by the end of week 5. Patient identifiers are listed in bold red letters in the panels.

For data set [3], the target named is mutant guanylate cyclase C GC-C S840I (p.Ser840Ile), transiently expressed in HEK293T cells (human). Kind of data set: cell-based or functional assay.
Setting [4] is: peroral 500 mg twice daily during weeks 2-5.

Several values for one entry are separate records, joined by “and”; a condition that tells them apart may be missing. Equal entries are not always repeated. Entries after “also recorded” stand apart in the source; their conditions may differ.

With `CN(C)C(=N)NC(=N)N` [metformin, 1,1-dimethylbiguanide], in data set [1] (setting [4]), the Side effects entry is “Intermittent nausea and None (4×) and Increased bloating”; the “Week 5 Stool firmness” value was “Increased”. The “Week 5 Stools per week” value in data set [1] (peroral 500 mg twice daily during weeks 2-5, week 1 (baseline) and weeks 6-10 without treatment) was 13 (2×) and 18 and 20 (2×) and 22. Further, the “stools during treatment (patient-reported firmness)” value in data set [1] (three of six patients, 500 mg twice daily) is “firmer”. For the same compound, the “Number of stools per week was reduced by” value in data set [1] (two patients with high stool frequency (35-36 per week), 500 mg twice daily) is recorded as 40%. Besides, in data set [2] (weeks 2-5), the “dose-response effect on number of stools” value is “clear dose-response effect; also recorded: significant dose-response effect” and the “reduction in weekly average stools/day” value is reported as 30-40%. For the same compound, in data set [2] (weeks 2-5 (Fig. 4)), the “maximal reduction of number of stools” value is listed as 30-40%.
In turn, “uroguanylin peptide (from UniProt Q16661 97-112)” displayed an EC50 of uroguanylin for cGMP production, relative to the WT receptor (fold lower than WT) in data set [3] of 6.

These data come from patent publication EP2599789A1, “Marker and method for diagnosing diarrhea syndrome” (Bergen Teknologioverføring AS, priority 2011, dated 2013).
